# Reference: PubChem BioAssay AID1918935 (Molecular Pharmacology Branch, DTP, NCI, 2023)
# Several values for one entry are separate records, joined by “and”; a condition that tells them apart may be missing. Equal values may be shown once.
# Test system: 324938-238-R-J1-PDC complex spheroid viability
# Assay: Anticancer human tumor 324938-238-R-J1-PDC patient-derived bladder carcinoma cell line growth inhibition
# Conditions: for viability, T/C: stronger effect = lower value
# How it was run: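 Drug combinations with the LSD1 inhibitor iadademstat tested on tumor cells co-cultured as spheroids with endothelial cells and mesenchymal stem cells. Concentrations descended in half-log increments from clinical Cmax or 10 microM.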
# [1] = curve of first compound, second compound 0.1 µM
# [2] = curve of first compound, second compound 0.316 µM
# [3] = curve of first compound, second compound 1 µM
# [4] = curve of first compound, second compound 3.16 µM
# [5] = curve of first compound, second compound 10 µM
# [6] = second compound 0.1 µM, first compound 0.00949 µM
# [7] = second compound 0.1 µM, first compound 0.03 µM
# [8] = second compound 0.1 µM, first compound 0.0949 µM
# [9] = second compound 0.1 µM, first compound 0.3 µM
# [10] = second compound 0.1 µM, first compound 0.949 µM
# [11] = second compound 0.1 µM, first compound 3 µM
# [12] = second compound 0.316 µM, first compound 0.00949 µM
# [13] = second compound 0.316 µM, first compound 0.03 µM
# [14] = second compound 0.316 µM, first compound 0.0949 µM
# [15] = second compound 0.316 µM, first compound 0.3 µM
# [16] = second compound 0.316 µM, first compound 0.949 µM
# [17] = second compound 0.316 µM, first compound 3 µM
# [18] = second compound 1 µM, first compound 0.00949 µM
# [19] = second compound 1 µM, first compound 0.03 µM
# [20] = second compound 1 µM, first compound 0.0949 µM
# [21] = second compound 1 µM, first compound 0.3 µM
# [22] = second compound 1 µM, first compound 0.949 µM
# [23] = second compound 1 µM, first compound 3 µM
# [24] = second compound 3.16 µM, first compound 0.00949 µM
# [25] = second compound 3.16 µM, first compound 0.03 µM
# [26] = second compound 3.16 µM, first compound 0.0949 µM
# [27] = second compound 3.16 µM, first compound 0.3 µM
# [28] = second compound 3.16 µM, first compound 0.949 µM
# [29] = second compound 3.16 µM, first compound 3 µM
# [30] = second compound 10 µM, first compound 0.00949 µM
# [31] = second compound 10 µM, first compound 0.03 µM
# [32] = second compound 10 µM, first compound 0.0949 µM
# [33] = second compound 10 µM, first compound 0.3 µM
# [34] = second compound 10 µM, first compound 0.949 µM
# [35] = second compound 10 µM, first compound 3 µM
# [36] = second compound 0.1 µM, first compound 0.00316 µM
# [37] = second compound 0.1 µM, first compound 0.01 µM
# [38] = second compound 0.1 µM, first compound 0.0316 µM
# [39] = second compound 0.1 µM, first compound 0.1 µM
# [40] = second compound 0.1 µM, first compound 0.316 µM
# [41] = second compound 0.1 µM, first compound 1 µM
# [42] = second compound 0.316 µM, first compound 0.00316 µM
# [43] = second compound 0.316 µM, first compound 0.01 µM
# [44] = second compound 0.316 µM, first compound 0.0316 µM
# [45] = second compound 0.316 µM, first compound 0.1 µM
# [46] = second compound 0.316 µM, first compound 0.316 µM
# [47] = second compound 0.316 µM, first compound 1 µM
# [48] = second compound 1 µM, first compound 0.00316 µM
# [49] = second compound 1 µM, first compound 0.01 µM
# [50] = second compound 1 µM, first compound 0.0316 µM
# [51] = second compound 1 µM, first compound 0.1 µM
# [52] = second compound 1 µM, first compound 0.316 µM
# [53] = second compound 1 µM, first compound 1 µM
# [54] = second compound 3.16 µM, first compound 0.00316 µM
# [55] = second compound 3.16 µM, first compound 0.01 µM
# [56] = second compound 3.16 µM, first compound 0.0316 µM
# [57] = second compound 3.16 µM, first compound 0.1 µM
# [58] = second compound 3.16 µM, first compound 0.316 µM
# [59] = second compound 3.16 µM, first compound 1 µM
# [60] = second compound 10 µM, first compound 0.00316 µM
# [61] = second compound 10 µM, first compound 0.01 µM
# [62] = second compound 10 µM, first compound 0.0316 µM
# [63] = second compound 10 µM, first compound 0.1 µM
# [64] = second compound 10 µM, first compound 0.316 µM
# [65] = second compound 10 µM, first compound 1 µM
# 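Further: spheroids also contain HUVEC and human MSCs and agents combined with iadademstat; spheroids exposed to agents for 7 days before readout.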
compound,measurement,setting,value
NS(=O)(=O)OCC1CC(n2ccc3c(NC4CCc5ccccc54)ncnc32)CC1O (configuration not stated) + NC1CCC(NC2CC2c2ccccc2)CC1,IC50,[1],336 nM
same,IC50,[2],336 nM
same,IC50,[3],390 nM
same,IC50,[4],309 nM
same,IC50,[5],323 nM
same,"viability, T/C",[6],81.7%
same,"viability, T/C",[7],78.5%
same,"viability, T/C",[8],84.7%
same,"viability, T/C",[9],54.2%
same,"viability, T/C",[10],11.7%
same,"viability, T/C",[11],11.9%
same,"viability, T/C",[12],86.5%
same,"viability, T/C",[13],88.1%
same,"viability, T/C",[14],79.9%
same,"viability, T/C",[15],54.7%
same,"viability, T/C",[16],14.3%
same,"viability, T/C",[17],11.5%
same,"viability, T/C",[18],79.2%
same,"viability, T/C",[19],84.3%
same,"viability, T/C",[20],82.4%
same,"viability, T/C",[21],60.1%
same,"viability, T/C",[22],15.7%
same,"viability, T/C",[23],15.9%
same,"viability, T/C",[24],77.6%
same,"viability, T/C",[25],74.5%
same,"viability, T/C",[26],83.3%
same,"viability, T/C",[27],50.9%
same,"viability, T/C",[28],15.5%
same,"viability, T/C",[29],15.8%
same,"viability, T/C",[30],86.3%
same,"viability, T/C",[31],72.8%
same,"viability, T/C",[32],79.9%
same,"viability, T/C",[33],52.2%
same,"viability, T/C",[34],16.3%
same,"viability, T/C",[35],13.3%
COc1cc(C2c3cc4c(cc3C(OC3OC5COC(C)OC5C(O)C3O)C3COC(=O)C23)OCO4)cc(OC)c1O (configuration not stated) + NC1CCC(NC2CC2c2ccccc2)CC1,IC50,[1],56.7 nM
same,IC50,[2],54.8 nM
same,IC50,[3],51.3 nM
same,IC50,[4],54.7 nM
same,IC50,[5],83.3 nM
same,"viability, T/C",[6],83.9%
same,"viability, T/C",[7],67%
same,"viability, T/C",[8],35.3%
same,"viability, T/C",[9],22.2%
same,"viability, T/C",[10],21.9%
same,"viability, T/C",[11],9.11%
same,"viability, T/C",[12],84.9%
same,"viability, T/C",[13],64.9%
same,"viability, T/C",[14],35.3%
same,"viability, T/C",[15],23.4%
same,"viability, T/C",[16],19%
same,"viability, T/C",[17],10%
same,"viability, T/C",[18],76.4%
same,"viability, T/C",[19],61.6%
same,"viability, T/C",[20],36.8%
same,"viability, T/C",[21],22.6%
same,"viability, T/C",[22],22.1%
same,"viability, T/C",[23],10.1%
same,"viability, T/C",[24],71.8%
same,"viability, T/C",[25],64%
same,"viability, T/C",[26],36.1%
same,"viability, T/C",[27],27.1%
same,"viability, T/C",[28],21.3%
same,"viability, T/C",[29],12.1%
same,"viability, T/C",[30],67.4%
same,"viability, T/C",[31],67.9%
same,"viability, T/C",[32],47.1%
same,"viability, T/C",[33],23.8%
same,"viability, T/C",[34],18.6%
same,"viability, T/C",[35],13.2%
CC1COCCN1c1cc(-c2ccnn2C)c2ccnc(-c3ccn[nH]3)c2n1 (configuration not stated) + NC1CC1c1ccc(-c2cccc(O)c2)cc1,IC50,[1],22.9 nM
same,IC50,[2],17.6 nM
same,IC50,[3],12.9 nM
same,IC50,[4],15.8 nM
same,IC50,[5],12.9 nM
same,"viability, T/C",[36],90.1%
same,"viability, T/C",[37],73.6%
same,"viability, T/C",[38],40.5%
same,"viability, T/C",[39],20.6%
same,"viability, T/C",[40],14.1%
same,"viability, T/C",[41],12.1%
same,"viability, T/C",[42],74%
same,"viability, T/C",[43],61.5%
same,"viability, T/C",[44],38.1%
same,"viability, T/C",[45],20.6%
same,"viability, T/C",[46],13.3%
same,"viability, T/C",[47],11.6%
same,"viability, T/C",[48],66.7%
same,"viability, T/C",[49],54.7%
same,"viability, T/C",[50],35%
same,"viability, T/C",[51],21.5%
same,"viability, T/C",[52],14.3%
same,"viability, T/C",[53],10.8%
same,"viability, T/C",[54],73.9%
same,"viability, T/C",[55],57%
same,"viability, T/C",[56],39.3%
same,"viability, T/C",[57],22.1%
same,"viability, T/C",[58],14.5%
same,"viability, T/C",[59],12%
same,"viability, T/C",[60],69.6%
same,"viability, T/C",[61],54.1%
same,"viability, T/C",[62],36.4%
same,"viability, T/C",[63],24.2%
same,"viability, T/C",[64],17.9%
same,"viability, T/C",[65],13.7%
Nc1ccccc1NC(=O)c1ccc(CNC(=O)OCc2cccnc2)cc1 + NC1CCC(NC2CC2c2ccccc2)CC1,IC50,[1],412 nM
same,IC50,[2],390 nM
same,IC50,[3],465 nM
same,IC50,[4],363 nM
same,IC50,[5],375 nM
same,"viability, T/C",[6],92%
same,"viability, T/C",[7],81.6%
same,"viability, T/C",[8],68.5%
same,"viability, T/C",[9],54.4%
same,"viability, T/C",[10],39.9%
same,"viability, T/C",[11],17.2%
same,"viability, T/C",[12],84.3%
same,"viability, T/C",[13],88%
same,"viability, T/C",[14],67.6%
same,"viability, T/C",[15],55%
same,"viability, T/C",[16],34.6%
same,"viability, T/C",[17],12.9%
same,"viability, T/C",[18],79%
same,"viability, T/C",[19],76.2%
same,"viability, T/C",[20],73.3%
same,"viability, T/C",[21],54.5%
same,"viability, T/C",[22],39.2%
same,"viability, T/C",[23],14.9%
same,"viability, T/C",[24],81.5%
same,"viability, T/C",[25],72.4%
same,"viability, T/C",[26],62%
same,"viability, T/C",[27],54.9%
same,"viability, T/C",[28],37.9%
same,"viability, T/C",[29],16%
same,"viability, T/C",[30],76.8%
same,"viability, T/C",[31],68.9%
same,"viability, T/C",[32],68.2%
same,"viability, T/C",[33],50.5%
same,"viability, T/C",[34],37.8%
same,"viability, T/C",[35],12.4%
Nc1ncn(C2CC(O)C(CO)O2)c(=O)n1 (configuration not stated) + NC1CCC(NC2CC2c2ccccc2)CC1,IC50,[1],177 nM
same,IC50,[2],256 nM
same,IC50,[3],159 nM
same,IC50,[4],129 nM
same,IC50,[5],237 nM
same,"viability, T/C",[36],71.8%
same,"viability, T/C",[37],66%
same,"viability, T/C",[38],59.3%
same,"viability, T/C",[39],56.1%
same,"viability, T/C",[40],44%
same,"viability, T/C",[41],40.3%
same,"viability, T/C",[42],74.9%
same,"viability, T/C",[43],67.1%
same,"viability, T/C",[44],68.4%
same,"viability, T/C",[45],55.1%
same,"viability, T/C",[46],45.6%
same,"viability, T/C",[47],42%
same,"viability, T/C",[48],73.2%
same,"viability, T/C",[49],58.7%
same,"viability, T/C",[50],60.4%
same,"viability, T/C",[51],50.7%
same,"viability, T/C",[52],46.2%
same,"viability, T/C",[53],47%
same,"viability, T/C",[54],61.9%
same,"viability, T/C",[55],58.6%
same,"viability, T/C",[56],54.3%
same,"viability, T/C",[57],53.4%
same,"viability, T/C",[58],44.5%
same,"viability, T/C",[59],39.5%
same,"viability, T/C",[60],63.5%
same,"viability, T/C",[61],67.3%
same,"viability, T/C",[62],57.9%
same,"viability, T/C",[63],59.1%
same,"viability, T/C",[64],45.2%
same,"viability, T/C",[65],37%
CC(C)CC(NC(=O)C(Cc1ccccc1)NC(=O)c1cnccn1)B(O)O (configuration not stated),"viability, T/C",compound 0.000316 µM,95.8% and 79.7%
same,"viability, T/C",compound 0.001 µM,21.5% and 7.74%
same,"viability, T/C",compound 0.00316 µM,0.55% and 0.19%
same,"viability, T/C",compound 0.01 µM,0.21% and 1.23%
same,"viability, T/C",compound 0.0316 µM,0.46% and 0.17%
same,"viability, T/C",compound 0.1 µM,0.24% and 0.28%
same,IC50,curve of compound,0.643 nM and 0.508 nM
